Values of other authors, collected in patent US7807616B2, “Geranonitrile substitute” (Henkel AG & Co. KGaA, priority 2004, dated 2010).
Where two headings read alike, the source gives them in different places.

What was measured:
[1] = new findings (BASF, 2003); status 2004
[2] = solution heated at 100° C. for two hours

Compound	class under the EU classification criteria (CMR) [1]	amount of the anhydrous salt that dissolves in 100 g of water (at 60°)	amount of the anhydrous salt that dissolves in 100 g of water (at 100°)	amount of the anhydrous salt that dissolves in 100 g of water (room temperature)	diphosphate produced by hydrolysis [2]	orthophosphate produced by hydrolysis [2]
CC(C)=CCCC(C)=CC#N [geranonitrile, 3,7-dimethyl-2,6-octadienenitrile]	category 3 mutagen (M:3)	–	–	–	–	–
O=P([O-])([O-])OP(=O)([O-])OP(=O)([O-])[O-].[Na+].[Na+].[Na+].[Na+].[Na+] [pentasodium triphosphate]	–	about 20 g	around 32 g	About 17 g	~15%	about 8%
